Experiments:
AncD1 [1] = system: AncD1; set-up: steady-state kinetics with 20 uM F420, absorbance decrease at 400 nm, pH 7.5, 25 °C; conditions: 20 uM F420, pH 7.5, 25 °C; substrate
Procedure: Sugars (phosphorylated as well as non-phosphorylated) and alcohols were tested as substrates. D-glucose-6-phosphate (G6P) was used as a prototype substrate to initially verify activity. Other 6-phosphorylated sugars tested were: D-fructose-6-phosphate, D-mannose-6-phosphate and D-glucosamine-6-phosphate. D-glucose, D-fructose, D-mannose, D-xylose, D-galactose-1-phosphate, D-glucose-1-phosphate, isopropanol, isobutanol, butanol and cyclohexanol were also tested for activity. Kinetics of all enzymes was measured in a Synergy MX microplate reader (BioTek) using 96-well F-bottom plates (Greiner Bio-One GmbH) at 25 °C. Assays were performed in a volume of 200 µL, containing 20 µM F420, 50–100 nM of enzyme and varying concentrations of the substrates in buffer (50 mM KPi, pH 7.5). Reaction was started by adding 100 µL of enzyme. All measurements were followed at λ = 400 nm for 3 min. The observed rates (kobs) were calculated by using a molecular extinction coefficient of ε400 (F420) = 25.7 mM^−1cm^−1. All experiments were repeated three times.

FGD-Cryar (FSD-Cryar) = molecular target: T1, FGD-Cryar (FSD-Cryar) (Cryptosporangium arvum, UniProt A0A010YY07); test: fluorescence quenching of FMN (ex […] nm, em […] nm), one-site fit; assay type: binding; conditions: read-out: FGD-Noca (FSD-Noca) / kcat [s^-1]
T1 construct: gene CryarDRAFT_1153

FGD-Noca (FSD-Noca) = molecular target: T2, FGD-Noca (FSD-Noca) (Nocardioidaceae bacterium Broad-1, UniProt E9V3D1); test: as above; assay type: binding; conditions: read-out: FGD-Noca (FSD-Noca) / kcat [s^-1]
T2 construct: full-length, codon-optimised, expressed in E. coli TOP10 (pBAD) as native protein, no SUMO; purified by anion exchange

AncD1 [2] = test: as above; assay type: binding; conditions: 0.1 µM cofactor, 25 °C; apparent KD; read-out: FGD-Noca (FSD-Noca) / kcat [s^-1]

Km (AncD1 [1])	SMILES	Kd (FGD-Cryar (FSD-Cryar))	Kd (FGD-Noca (FSD-Noca))	Kd (AncD1 [2])
45 ± 15 mM	O=P(O)(O)OC[C@H]1OC(O)(CO)[C@@H](O)[C@@H]1O (stereo partly drawn) [D-fructose-6-phosphate]			
1 ± 0.19 mM	O=P(O)(O)OC[C@H]1OC(O)[C@H](O)[C@@H](O)[C@@H]1O (stereo partly drawn) [D-glucose-6-phosphate]			
7.2 ± 4.7 mM	O=P(O)(O)OC[C@H]1OC(O)[C@@H](O)[C@@H](O)[C@@H]1O (stereo partly drawn) [D-mannose-6-phosphate]			
	Cc1cc2nc3c(=O)[nH]c(=O)nc-3n(C[C@H](O)[C@H](O)[C@H](O)COP(=O)(O)O)c2cc1C [FMN]	> 150 µM	> 150 µM	> 150 µM

Reference: paper PMC6279831, “Reconstructing the evolutionary history of F420-dependent dehydrogenases” (Scientific Reports, 2018)
